Results on 4 compounds are retold here after publication PMC7385626 (Scientific Reports, 2020).

For data set [1], the system named is HeLa, HT29, C6 and Vero cells. As to the kind of experiment: BrdU Cell Proliferation Assay, range over the cell lines. Format: cell-based. As to conditions: BrdU assay. An excerpt: (§1) The antiproliferative activities of Ag(I) molecules and the starting molecules of the parent molecules, N-bishydeten and [Ag(CN)2]^− compound, on cells, were monitored utilizing by the BrdU Cell Proliferation Assay (BCPA) (Fig. 6).
(§2) The antiproliferative activity of the 2, 3, 4, [Ag(CN)2]^− and 5FU against various cell lines (HeLa ATCC CCL-2, C6 cells ATCC CCL-107, HT29 ATCC HTB-38, and Vero ATCC CCL-81) were preserved and maintained in Dulbecco’s modified eagle’s medium, supplemented with %2 antibiotic (Streptomycin-Penicillin) solution and 10% fetal bovine serum.
(§3) The cell suspension including 5×10^3 cells in 100 µL was supplied into the well cell plates (96-well cell). The therapies of these cells with 2, 3, 4 and [Ag(CN)2]^− in DMSO (max 0.1% DMSO) and 5-Florouracil (5 FU) molecule in DMSO (max 0.1% DMSO) separately at concentration 0.25, 0.50, 1.00, 1.50, 2.00, 2.50, 3.75, and 5.00 µg/mL were carried out. The last volume was adapted to 200 µL by mixture and DMEM and also incubated for 24 h at 37°C with 5% CO2. The antiproliferative activities of the 2, 3, 4 and [Ag(CN)2]^− were determined with using BrdU Cell proliferation ELISA Kit conforming to manufacturer’s assay.
(§4) IC50 values the concentration of a factor which required for other method of in vitro.
In general terms: Incorporation of labelled thymidine or its analogues reports DNA synthesis.

Another data set concerns the target BSA (Bos taurus, UniProt P02769). Put plainly: UV–Visible absorption titration, BSA binding constant. More on the design: species or system Bovine. An excerpt: UV–Visible absorption spectroscopy technique was also used to study interactions between BSA and 1–4. […] The some results of [BSA]/(εa − εf) = [BSA]/(εb − εf) + 1/[Kb(εb − εf)] in Fig. 9, used and also obtained. The binding constants for the 1–4 were found as 2.4 ± 0.22 × 10^4 M^−1, 4.3 ± 0.29 × 10^4 M^−1, 3.4 ± 0.23 × 10^4 M^−1 and 4.8 ± 0.29 × 10^4 M^−1, respectively. In Fig. 9, the increase in BSA concentrations leads to a change in the absorption of the complexes resulting in hypochromism for 1 and 3 and hyperchromism for 2 and 4.
To obtain the interaction act of the molecules with calf thymus DNA and also to determine the binding constants (Kb) UV–Visible absorption spectroscopy method was utilized. Indeed, 2.5 mg calf thymus DNA in this part was dissolved in Tris–HCl buffer and stabile pending seven days in the refrigerator. The concentration level of calf thymus DNA was calculated spectrophotometrically assay at 260 nm. This method was done according to previous studies.

The subject of data set [2] is S. aureus ATCC29213. Put plainly: Disc diffusion assay. Format: cell-based, Staphylococcus aureus. As for the experimental part: (§5) Therefore, the pathogen bacterial flora and the opportunistic agents may be taken into consideration both in the management of cancer patients and in individual susceptibility to cancer. Indeed, dual acting factors with antimicrobial and antiproliferative potentials can result in improved therapeutic efficacy for cancer cell patients or reduced cancer predisposition. […]. In this study, 10 microbial cultures of this part, belonging to ten types of bacterial were used. The culture was grown in Mueller–Hinton Broth (Merck) for all the bacterial strains at 36 °C. Antimicrobial test was carried out by using disc-diffusion assay utilizing 100 µL of suspension with 10^8 CFU/mL of bacteria and 10^6 CFU/mL of yeast spread on Nutrient Agar and Potato Dextrose Agar, respectively. Also, the blank disc (Oxoid = 6 mm in diameter) was impregnated with 20 µL of each substance (105 µg/disc) and placed on the inoculated agar. Negative controls ([…]) were prepared using the same solvent (water) employed to dissolve each substance. […]. The inoculated plate was incubated at 36 °C for clinical bacterial strains. Antimicrobial activities were evaluated by obtaining the zone of inhibitory effect against the test organisms.
Background: Agar diffusion results depend on both activity and mobility in agar.

The test system of data set [3] is B. subtilis ATCC6633. Put plainly: Disc diffusion assay. Format: cell-based, Bacillus Subtilis. As for the experimental part: as §5
Data set [4] concerns B. cereus DSM 4312. Put plainly: Disc diffusion assay. It counts as cell-based, Bacillus Cereus. On the procedure: as §5
Data set [5] concerns St. pyogenez ATCC176. As to the kind of experiment: Disc diffusion assay. It counts as cell-based, Steptococcus Pyogerez. As for the experimental part: as §5
Data set [6] has as its system E. coli 111. As to the kind of experiment: Disc diffusion assay. It counts as cell-based, Escherichia coli. As for the experimental part:
as §5

The next data set relates to E. aerogenes 2924. As to the kind of experiment: Disc diffusion assay. It counts as cell-based, Enterobacter Aerogenes. On the procedure: as §5
Data set [7] relates to S. gallinarum. As to the kind of experiment: Disc diffusion assay. Format: cell-based, Salmonella Gallinarum. On the procedure: as §5
Data set [8] relates to S. enteridis ATCC13076. As to the kind of experiment: Disc diffusion assay. It counts as cell-based, Salmonella Enteritidis. As for the experimental part:
as §5

For data set [9], the system named is S. aureus ATCC29213. Put plainly: Serial microdilution assay (MIC). It counts as cell-based, Staphylococcus aureus. As for the experimental part:
(§6) […]. […] Four types of gram-positive bacterial strains (St. pyogenez, B. subtilis, B. cereus, S. aureus) and five types of the gram-negative (S. enteridis, E. aerogenes, P. aeruginosa, E. coli, and S. gallinarum) were sensitive to 4 and 1. […]. The minimal inhibitory concentration value was studied for the microorganism cells, which evaluated to sensitive the substances and they tested in the disc-diffusion method. Inoculate of microorganism was prepared utilizing 12 h suspensions and broth cultures were adjusted to 0.5 McFarland turbidity standard. Each substance was dissolved in 10% dimethyl sulfoxide which diluted to the highest concentration (1000 µg/mL) for testing. […]. Also, prepared suspensions for standard microorganisms were added to each dilution in a 1:1 ratio. Growth act of microorganism cells was determined visually after incubation at 36 °C. The minimum concentration was no visible growth which was taken as the MIC.
A general note: In broth dilution the organism is exposed to a series of concentrations in liquid medium.

For data set [10], the system named is B. subtilis ATCC6633. As to the kind of experiment: Serial microdilution assay (MIC). It counts as cell-based, Bacillus Subtilis. On the procedure: as §6
Data set [11] concerns B. cereus DSM 4312. Put plainly: Serial microdilution assay (MIC). Format: cell-based, Bacillus Cereus. On the procedure: as §6
Data set [12] has as its system St. pyogenez ATCC176. Put plainly: Serial microdilution assay (MIC). It counts as cell-based, Steptococcus Pyogerez. As for the experimental part: as §6
For data set [13], the system named is E. coli 111. As to the kind of experiment: Serial microdilution assay (MIC). Format: cell-based, Escherichia coli. As for the experimental part: as §6
For another data set, the system named is P. aeruginosa ATCC9027. Put plainly: Serial microdilution assay (MIC). Format: cell-based, Pseudomonas Aureginosa. On the procedure:
as §6

The next data set concerns E. aerogenes ATCC2924. Put plainly: Serial microdilution assay (MIC). Format: cell-based, Enterobacter Aerogenes. On the procedure:
as §6

The test system of data set [14] is S. gallinarum. Put plainly: Serial microdilution assay (MIC). It counts as cell-based, Salmonella Gallinarum. As for the experimental part:
as §6

For data set [15], the system named is S. enteridis ATCC13076. Put plainly: Serial microdilution assay (MIC). It counts as cell-based, Salmonella Enteritidis. As for the experimental part:
as §6

Data set [16] deals with bacterial strains (four gram-positive, five gram-negative). As to the kind of experiment: Serial microdilution assay (MIC), range over the bacterial strains. Format: cell-based. As for the experimental part:
as §6

The subject of the next data set is C6. As to the kind of experiment: BrdU Cell Proliferation Assay (BCPA). Format: cell-based. To be noted: BrdU ELISA, 24 h, mean ± SD of three experiments.
Description: as §1, §2, §3, §4

The test system of another data set is HeLa. Put plainly: BrdU Cell Proliferation Assay (BCPA). It counts as cell-based. To be noted: BrdU ELISA, 24 h, mean ± SD of three experiments.
Description: as §1, §2, §3, §4

The test system of another data set is Vero. Put plainly: BrdU Cell Proliferation Assay (BCPA). To be noted: BrdU ELISA, 24 h, normal cell line, mean ± SD of three experiments. It counts as cell-based.
Description: as §1, §2, §3, §4

A further data set deals with HT29. Put plainly: BrdU Cell Proliferation Assay (BCPA). As to conditions: BrdU ELISA, 24 h, mean ± SD of three experiments. Format: cell-based, human.
Description: as §1, §2, §3, §4

A short description of another data set: in vitro. To be noted: human (HT-29, HeLa), rat (C6), African green monkey (Vero). The source says:
(§7) LDH activities were measurement at 492-630 nm using a microplate reader. The percentage cytotoxicity was find with using the equation, […], where experimental value is the test-molecule treated cells, and high control is Triton X-100 treated cells, and low standard or control (spontaneous LDH enzyme) is the untreated cells.

Another data set relates to HT29 cells. To be noted: human.
Description: as §7

The subject of another data set is CT-DNA. As to conditions: literature comparison; ref [59],[60]; cited from earlier work.

What is called IC50 is the concentration that gives 50% inhibition.

Where “and” joins values, the source holds several entries; their conditions need not be identical. Equal entries are not always repeated.

With `NCCN(CCO)CCO` [N-bishydeten, N, N-bis (2-hydroxyethyl) -ethylenediamine, reference compound], the “antiproliferative effect (in words)” value in data set [1] (same administrative dose, data not shown) is “no antiproliferative effects”.

For the compound [Ni(N-bishydeten)Ag3(CN)5] [Complex 1], the “binding constant with BSA” value on BSA is 2.4 ± 0.22 × 10^4 M^−1 and 2.4 x 10^4. The “inhibition zones, S. aureus ATCC29213” value with S. aureus ATCC29213 [2] came out at 18 ± 0.58 mm. The “inhibition zones, B. subtilis ATCC6633” value in the data set on B. subtilis ATCC6633 [3] is listed as 14 ± 1.53 mm. For the same compound, the “inhibition zones, B. cereus DSM 4312” value in the data set with B. cereus DSM 4312 [4] stood at 20 ± 1.0 mm. For the same compound, the “inhibition zones, St. pyogenez ATCC176” value with St. pyogenez ATCC176 [5] was 15 ± 0.0 mm. Also, the “inhibition zones, E. coli 111” value in the data set on E. coli 111 [6] is given as 19 ± 0.58 mm. Further, the “inhibition zones, E. aerogenes 2924” value in the data set on E. aerogenes 2924 is 15 ± 1.0 mm. The “inhibition zones, S. gallinarum” value in the data set on S. gallinarum [7] is given as 17 ± 0.58 mm. Besides, the “inhibition zones, S. enteridis ATCC13076” value in the data set with S. enteridis ATCC13076 [8] is on record as 18 ± 0.58 mm. Further, the “Minimum-inhibitory concentrations (MIC), S. aureus ATCC29213” value in the data set on S. aureus ATCC29213 [9] came to 62.50 ± 36.08 µg/mL. Further, in the data set on B. subtilis ATCC6633 [10], the “Minimum-inhibitory concentrations (MIC), B. subtilis ATCC6633” value is 62.50 ± 0.0 µg/mL. The “Minimum-inhibitory concentrations (MIC), B. cereus DSM 4312” value in the data set with B. cereus DSM 4312 [11] amounted to 62.50 ± 18.04 µg/mL. In addition, in the data set on St. pyogenez ATCC176 [12], the “MIC, St. pyogenez” value turned out to be 15.62 µg/mL and the “Minimum-inhibitory concentrations (MIC), St. pyogenez ATCC176” value is reported as 15.62 ± 9.02 µg/mL. Moreover, in the data set on E. coli 111 [13], the “Minimum-inhibitory concentrations (MIC), E. coli 111” value came to 62.50 ± 0.0 µg/mL. The “Minimum-inhibitory concentrations (MIC), P. aeruginosa ATCC9027” value in the data set on P. aeruginosa ATCC9027 came to 62.50 ± 18.04 µg/mL. Also, in the data set with E. aerogenes ATCC2924, the “MIC, E. aerogenes” value was 15.62 µg/mL and the “Minimum-inhibitory concentrations (MIC), E. aerogenes ATCC2924” value is reported as 15.62 ± 0.0 µg/mL. Besides, in the data set with S. gallinarum [14], the “MIC, S. gallinarum” value turned out to be 31.25 µg/mL and the “Minimum-inhibitory concentrations (MIC), S. gallinarum” value is listed as 31.25 ± 0.0 µg/mL. Moreover, the “Minimum-inhibitory concentrations (MIC), S. enteridis ATCC13076” value in the data set on S. enteridis ATCC13076 [15] is 62.50 ± 17.97 µg/mL. Also, in data set [16], the “MIC, joint range for 4 and 1 over the strains” value was 15.62 to 125 µg/mL.

Consider `N.N.[Cl][Pt][Cl]` [Cisplatin, cisplatin, reference compound], for which the IC50 with C6 was 208 ± 23 µM; with HeLa, 230 ± 15 µM; in the data set on Vero, 235 ± 19 µM; in the data set with HT29, 153 ± 14 µM; in [1] (HeLa, HT29, C6, Vero), 153 to 235 µM.

Regarding `O=c1[nH]cc(F)c(=O)[nH]1` [5FU, 5-fluorouracil, reference compound], the half-maximal inhibitory concentration (IC50) turned out to be 217 ± 19 µM with C6 (Rattus norvegicus, C6); 276 ± 17 µM in the data set on HeLa (Homo sapiens, HeLa); 258 ± 21 µM with Vero (Chlorocebus sabaeus, Vero); 258 ± 21 µM in the data set on HT29 (Homo sapiens, HT-29). In addition, the cytotoxicity in the data set “in vitro” fell in the range of 15 to 25%. The “cytotoxicity against HT29 cells (LDH)” value in the data set on HT29 cells is recorded as 9–11%. The “binding constant with DNA (reported)” value with CT-DNA is 97000 M⁻¹.
